Measured values reported in patent US6737383B1, “Herbicidal oxadiazolidines” (priority 1999, dated 2004).

Tests used:
crabgrass = experiment: Test B pre/postemergence crabgrass; type: in vivo, Digitaria sanguinalis
Procedure, shortened: (§1)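 Test chemicals in a non-phytotoxic solvent mixture with surfactant were sprayed preemergence onto planted seeds and postemergence onto plants 2 to 18 cm tall (1- to 4-leaf stage). After twelve to sixteen days in a greenhouse, injury was visually rated against untreated controls from 0 (no effect) to 10 (complete control).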

wheat = experiment: Test B pre/postemergence wheat; type: in vivo, Triticum aestivum
Procedure, shortened: as §1

wild oat = experiment: Test B pre/postemergence wild oat; type: in vivo, Avena fatua
Procedure, shortened: as §1

bedstraw = experiment: Test B pre/postemergence bedstraw; type: in vivo, Galium aparine
Procedure, shortened: as §1

rice = experiment: Test B flood test rice; type: in vivo, Oryza sativa
Procedure, shortened: (§2)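 Plants were grown to the 2-leaf stage before treatment with test chemical, then held in a greenhouse for twelve to sixteen days. Injury was visually rated against untreated controls on a 0–10 scale, where 0 is no effect and 10 is complete control.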

blackgrass = experiment: Test B pre/postemergence blackgrass; type: in vivo, Alopecurus myosuroides
Procedure, shortened: as §1

sugar beet = experiment: Test B pre/postemergence sugar beet; type: in vivo, Beta vulgaris
Procedure, shortened: as §1

rape = experiment: Test B pre/postemergence rape; type: in vivo, Brassica napus
Procedure, shortened: as §1

soybean = experiment: Test B pre/postemergence soybean; type: in vivo, Glycine max
Procedure, shortened: as §1

pigweed = experiment: Test B pre/postemergence pigweed; type: in vivo, Amaranthus retroflexus
Procedure, shortened: as §1

surinam grass = experiment: Test B pre/postemergence surinam grass; type: in vivo, Brachiaria decumbens
Procedure, shortened: as §1

corn = experiment: Test B pre/postemergence corn; type: in vivo, Zea mays
Procedure, shortened: as §1

duck salad = experiment: Test B flood test duck salad; type: in vivo, Heteranthera limosa
Procedure, shortened: as §2

velvetleaf = experiment: Test B pre/postemergence velvetleaf; type: in vivo, Abutilon theophrasti
Procedure, shortened: as §1

smallflower flatsedge = experiment: Test B flood test smallflower flatsedge; type: in vivo, Cyperus difformis
Procedure, shortened: as §2

purple nutsedge = experiment: Test B pre/postemergence purple nutsedge; type: in vivo, Cyperus rotundus; settings: Preemergence; for Nutsedge plant response rating: Rate 500 g/ha, scale 0 (no effect) to 10 (complete control)
Procedure, shortened: as §1

[1] = Postemergence, Rate 250 g/ha, scale 0 to 10, 0 no effect, 10 complete control
[2] = Postemergence, Rate 1000 g/ha, scale 0 to 10 (0 no effect, 10 complete control)
[3] = Preemergence, Rate 125 g/ha, scale 0 to 10 (0 no effect, 10 complete control)
[4] = Preemergence, Rate 500 g/ha, scale 0 (no effect) to 10 (complete control)
[5] = Rate 125 g/ha, Postemergence, scale 0 to 10, 0 no effect, 10 complete control
[6] = Rate 500 g/ha, Postemergence, 0 to 10 scale (0 no effect, 10 complete control)
[7] = Rate 1000 g/ha, Preemergence, scale 0 to 10 (0 no effect, 10 complete control)
[8] = Preemergence, Rate 250 g/ha, scale of 0 to 10 where 0 is no effect and 10 is complete control
[9] = Rate 125 g/ha, Postemergence section (flood test species), scale 0 to 10, 0 no effect, 10 complete control
[10] = Rate 500 g/ha, Postemergence section of Table B, 0 to 10 scale (0 no effect, 10 complete control)
[11] = flood test, listed under Postemergence, Rate 250 g/ha, scale 0 to 10, 0 no effect, 10 complete control
[12] = Rate 125 g/ha, scale 0 to 10 (0 no effect, 10 complete control)
[13] = Rate 250 g/ha, scale of 0 to 10 where 0 is no effect and 10 is complete control
[14] = Rate 1000 g/ha, scale 0 to 10 (0 no effect, 10 complete control)

COc1ccc(-n2c(=O)on(C(=O)N(C3=CCOCC3)C(C)C)c2=O)cc1 [Compound 6]
Crabgrass plant response rating (crabgrass; [1]): 2 | Crabgrass plant response rating (crabgrass; [2]): 7 | Plant response rating, Crabgrass (crabgrass; [3]): 7 | Crabgrass plant response rating (crabgrass; [4]): 9 | Crabgrass plant response rating (crabgrass; [5]): 0 | Crabgrass plant response rating (crabgrass; [6]): 5 | Plant response rating, Crabgrass (crabgrass; [7]): 10 | Wheat plant response rating (wheat; [1]): 0 | Wheat plant response rating (wheat; [2]): 0 | Plant response rating, Wheat (wheat; [3]): 0 | Plant response rating, Wheat (wheat; [8]): 0 | Wheat plant response rating (wheat; [4]): 0 | Wheat plant response rating (wheat; [5]): 0 | Plant response rating, Wheat (wheat; [7]): 3 | Wild oats plant response rating (wild oat; [1]): 0 | Wild oats plant response rating (wild oat; [2]): 4 | Plant response rating, Wild oats (wild oat; [3]): 0 | Plant response rating, Wild oats (wild oat; [8]): 0 | Wild oats plant response rating (wild oat; [4]): 3 | Wild oats plant response rating (wild oat; [5]): 0 | Plant response rating, Wild oats (wild oat; [7]): 6 | Bedstraw plant response rating (bedstraw; [1]): 0 | Bedstraw plant response rating (bedstraw; [2]): 3 | Plant response rating, Bedstraw (bedstraw; [3]): 0 | Plant response rating, Bedstraw (bedstraw; [8]): 0 | Bedstraw plant response rating (bedstraw; [4]): 0 | Bedstraw plant response rating (bedstraw; [5]): 0 | Bedstraw plant response rating (bedstraw; [6]): 0 | Plant response rating, Bedstraw (bedstraw; [7]): 0 | Rice plant response rating (rice; [2]): 3 | Rice plant response rating (rice; [9]): 0 | Rice plant response rating (rice; [10]): 0 | Rice plant response rating (rice; [11]): 0 | Blackgrass plant response rating (blackgrass; [1]): 7 | Blackgrass plant response rating (blackgrass; [2]): 7 | Plant response rating, Blackgrass (blackgrass; [3]): 0 | Plant response rating, Blackgrass (blackgrass; [8]): 0 | Blackgrass plant response rating (blackgrass; [4]): 2 | Blackgrass plant response rating (blackgrass; [5]): 4 | Blackgrass plant response rating (blackgrass; [6]): 7 | Plant response rating, Blackgrass (blackgrass; [7]): 7 | Sugarbeets plant response rating (sugar beet; [1]): 0 | Sugarbeets plant response rating (sugar beet; [2]): 3 | Plant response rating, Sugarbeets (sugar beet; [3]): 0 | Plant response rating, Sugarbeets (sugar beet; [8]): 0 | Sugarbeets plant response rating (sugar beet; [4]): 0 | Sugarbeets plant response rating (sugar beet; [5]): 0 | Plant response rating, Sugarbeets (sugar beet; [7]): 0 | Rape plant response rating (rape; [1]): 0 | Rape plant response rating (rape; [2]): 2 | Plant response rating, Rape (rape; [3]): 0 | Plant response rating, Rape (rape; [8]): 0 | Rape plant response rating (rape; [4]): 0 | Rape plant response rating (rape; [5]): 0 | Rape plant response rating (rape; [6]): 0 | Plant response rating, Rape (rape; [7]): 0 | Soybean plant response rating (soybean; [1]): 3 | Soybean plant response rating (soybean; [2]): 6 | Plant response rating, Soybean (soybean; [3]): 0 | Plant response rating, Soybean (soybean; [8]): 0 | Soybean plant response rating (soybean; [4]): 0 | Soybean plant response rating (soybean; [5]): 3 | Plant response rating, Soybean (soybean; [7]): 0 | Redroot pigweed plant response rating (pigweed; [1]): 0 | Redroot pigweed plant response rating (pigweed; [2]): 4 | Plant response rating, Redroot pigweed (pigweed; [3]): 5 | Plant response rating, Redroot pigweed (pigweed; [8]): 5 | Redroot pigweed plant response rating (pigweed; [4]): 7 | Redroot pigweed plant response rating (pigweed; [5]): 0 | Redroot pigweed plant response rating (pigweed; [6]): 0 | Plant response rating, Redroot pigweed (pigweed; [7]): 7 | B. signalgrass plant response rating (surinam grass; [1]): 2 | B. signalgrass plant response rating (surinam grass; [2]): 7 | Plant response rating, B. signalgrass (surinam grass; [3]): 0 | Plant response rating, B. signalgrass (surinam grass; [8]): 0 | B. signalgrass plant response rating (surinam grass; [4]): 0 | B. signalgrass plant response rating (surinam grass; [5]): 0 | B. signalgrass plant response rating (surinam grass; [6]): 5 | Plant response rating, B. signalgrass (surinam grass; [7]): 5 | Corn plant response rating (corn; [1]): 0 | Corn plant response rating (corn; [2]): 4 | Plant response rating, Corn (corn; [3]): 0 | Plant response rating, Corn (corn; [8]): 1 | Corn plant response rating (corn; [4]): 2 | Corn plant response rating (corn; [5]): 0 | Corn plant response rating (corn; [6]): 0 | Plant response rating, Corn (corn; [7]): 5 | Ducksalad plant response rating (duck salad; [2]): 0 | Ducksalad plant response rating (duck salad; [9]): 0 | Ducksalad plant response rating (duck salad; [10]): 0 | Ducksalad plant response rating (duck salad; [11]): 0 | Velvetleaf plant response rating (velvetleaf; [1]): 0 | Velvetleaf plant response rating (velvetleaf; [2]): 1 | Plant response rating, Velvetleaf (velvetleaf; [3]): 0 | Plant response rating, Velvetleaf (velvetleaf; [8]): 2 | Velvetleaf plant response rating (velvetleaf; [4]): 2 | Velvetleaf plant response rating (velvetleaf; [5]): 0 | Plant response rating, Velvetleaf (velvetleaf; [7]): 4 | S. Flatsedge plant response rating (smallflower flatsedge; [2]): 3 | S. Flatsedge plant response rating (smallflower flatsedge; [9]): 0 | S. Flatsedge plant response rating (smallflower flatsedge; [11]): 0 | Plant response rating, Nutsedge (purple nutsedge; [12]): 0 | Plant response rating, Nutsedge (purple nutsedge; [13]): 0 | Nutsedge plant response rating (purple nutsedge): 0 | Plant response rating, Nutsedge (purple nutsedge; [14]): 0

CC(C)N(C(=O)n1oc(=O)n(-c2cc(Cl)cc(Cl)c2)c1=O)C1=CCOCC1 [Compound 9]
Crabgrass plant response rating (crabgrass; [1]): 0 | Crabgrass plant response rating (crabgrass; [2]): 0 | Plant response rating, Crabgrass (crabgrass; [3]): 3 | Plant response rating, Crabgrass (crabgrass; [8]): 0 | Crabgrass plant response rating (crabgrass; [4]): 3 | Crabgrass plant response rating (crabgrass; [5]): 0 | Crabgrass plant response rating (crabgrass; [6]): 0 | Plant response rating, Crabgrass (crabgrass; [7]): 3 | Wheat plant response rating (wheat; [1]): 0 | Wheat plant response rating (wheat; [2]): 0 | Plant response rating, Wheat (wheat; [3]): 0 | Plant response rating, Wheat (wheat; [8]): 0 | Wheat plant response rating (wheat; [4]): 0 | Wheat plant response rating (wheat; [5]): 0 | Plant response rating, Wheat (wheat; [7]): 0 | Wild oats plant response rating (wild oat; [1]): 0 | Wild oats plant response rating (wild oat; [2]): 0 | Plant response rating, Wild oats (wild oat; [3]): 0 | Plant response rating, Wild oats (wild oat; [8]): 0 | Wild oats plant response rating (wild oat; [4]): 0 | Wild oats plant response rating (wild oat; [5]): 0 | Plant response rating, Wild oats (wild oat; [7]): 0 | Bedstraw plant response rating (bedstraw; [1]): 0 | Plant response rating, Bedstraw (bedstraw; [3]): 0 | Plant response rating, Bedstraw (bedstraw; [8]): 0 | Bedstraw plant response rating (bedstraw; [4]): 0 | Bedstraw plant response rating (bedstraw; [5]): 0 | Bedstraw plant response rating (bedstraw; [6]): 0 | Plant response rating, Bedstraw (bedstraw; [7]): 0 | Rice plant response rating (rice; [2]): 0 | Rice plant response rating (rice; [9]): 0 | Rice plant response rating (rice; [10]): 0 | Rice plant response rating (rice; [11]): 0 | Blackgrass plant response rating (blackgrass; [1]): 0 | Blackgrass plant response rating (blackgrass; [2]): 3 | Plant response rating, Blackgrass (blackgrass; [3]): 0 | Plant response rating, Blackgrass (blackgrass; [8]): 0 | Blackgrass plant response rating (blackgrass; [4]): 0 | Blackgrass plant response rating (blackgrass; [5]): 0 | Blackgrass plant response rating (blackgrass; [6]): 2 | Plant response rating, Blackgrass (blackgrass; [7]): 0 | Sugarbeets plant response rating (sugar beet; [1]): 0 | Sugarbeets plant response rating (sugar beet; [2]): 0 | Plant response rating, Sugarbeets (sugar beet; [3]): 0 | Plant response rating, Sugarbeets (sugar beet; [8]): 0 | Sugarbeets plant response rating (sugar beet; [4]): 0 | Sugarbeets plant response rating (sugar beet; [5]): 0 | Plant response rating, Sugarbeets (sugar beet; [7]): 0 | Rape plant response rating (rape; [1]): 0 | Rape plant response rating (rape; [2]): 0 | Plant response rating, Rape (rape; [3]): 0 | Plant response rating, Rape (rape; [8]): 0 | Rape plant response rating (rape; [4]): 0 | Rape plant response rating (rape; [5]): 0 | Rape plant response rating (rape; [6]): 0 | Plant response rating, Rape (rape; [7]): 0 | Soybean plant response rating (soybean; [1]): 0 | Soybean plant response rating (soybean; [2]): 1 | Plant response rating, Soybean (soybean; [3]): 0 | Plant response rating, Soybean (soybean; [8]): 0 | Soybean plant response rating (soybean; [4]): 0 | Soybean plant response rating (soybean; [5]): 0 | Plant response rating, Soybean (soybean; [7]): 0 | Redroot pigweed plant response rating (pigweed; [1]): 0 | Redroot pigweed plant response rating (pigweed; [2]): 3 | Plant response rating, Redroot pigweed (pigweed; [3]): 0 | Plant response rating, Redroot pigweed (pigweed; [8]): 0 | Redroot pigweed plant response rating (pigweed; [4]): 0 | Redroot pigweed plant response rating (pigweed; [5]): 0 | Redroot pigweed plant response rating (pigweed; [6]): 3 | Plant response rating, Redroot pigweed (pigweed; [7]): 0 | B. signalgrass plant response rating (surinam grass; [1]): 0 | B. signalgrass plant response rating (surinam grass; [2]): 0 | Plant response rating, B. signalgrass (surinam grass; [3]): 0 | Plant response rating, B. signalgrass (surinam grass; [8]): 0 | B. signalgrass plant response rating (surinam grass; [4]): 0 | B. signalgrass plant response rating (surinam grass; [5]): 0 | B. signalgrass plant response rating (surinam grass; [6]): 0 | Plant response rating, B. signalgrass (surinam grass; [7]): 0 | Corn plant response rating (corn; [1]): 0 | Corn plant response rating (corn; [2]): 0 | Plant response rating, Corn (corn; [3]): 0 | Plant response rating, Corn (corn; [8]): 0 | Corn plant response rating (corn; [4]): 0 | Corn plant response rating (corn; [5]): 0 | Corn plant response rating (corn; [6]): 0 | Plant response rating, Corn (corn; [7]): 3 | Ducksalad plant response rating (duck salad; [2]): 0 | Ducksalad plant response rating (duck salad; [9]): 0 | Ducksalad plant response rating (duck salad; [10]): 0 | Ducksalad plant response rating (duck salad; [11]): 0 | Velvetleaf plant response rating (velvetleaf; [1]): 0 | Velvetleaf plant response rating (velvetleaf; [2]): 0 | Plant response rating, Velvetleaf (velvetleaf; [3]): 0 | Plant response rating, Velvetleaf (velvetleaf; [8]): 0 | Velvetleaf plant response rating (velvetleaf; [4]): 0 | Velvetleaf plant response rating (velvetleaf; [5]): 0 | Plant response rating, Velvetleaf (velvetleaf; [7]): 0 | S. Flatsedge plant response rating (smallflower flatsedge; [2]): 0 | S. Flatsedge plant response rating (smallflower flatsedge; [9]): 0 | S. Flatsedge plant response rating (smallflower flatsedge; [11]): 0 | Plant response rating, Nutsedge (purple nutsedge; [12]): 0 | Plant response rating, Nutsedge (purple nutsedge; [13]): 0 | Nutsedge plant response rating (purple nutsedge): 0 | Plant response rating, Nutsedge (purple nutsedge; [14]): 0
